Results on one compound are retold here after article PMC11729550, “Discovery of indole analogue Tc3 as a potent pyroptosis inducer and identification of its combination strategy against hepatic carcinoma” (Theranostics, 2025).

Molecules are shown by their SMILES.

Series [1] in a line: in vitro. As to conditions: microsomes. The method, then: The reaction media contained liver microsomes (0.5 mg/mL), 1.0 mM β-nicotinamide adenine dinucleotide phosphate (β-NADPH), 3 mM MgCl2 phosphate buffer. Microsomal suspensions were pre-incubated with Tc3 for 3 min at 37℃. The reaction was initiated with the addition of β-NADPH and samples were collected at 0, 5, 15, 30 and 60 min. The negative control was excluded of β-NADPH. Midazolam was incubated similarly as a positive control substrate. At each time point, an aliquot was mixed acetonitrile. Samples were centrifuged and then supernatant was mixed with ultrapure water for LC-MS/MS analysis.

The subject of series [2] is ROS. In words: Reactive Oxygen Species detection (DCFH-DA). It is filed as cell-based, human. As to conditions: HepG2 cells, 24 h. The method, then:
The hepatic carcinoma cells were seeded in 6-well plates and treated with Tc3 for 24 h. The cells were then stained by DCFH-DA (10 μM) for 20 min, washed with PBS buffer for two times, and the fluorescence intensity was captured by a confocal microscope (Leica, TCS SP8).

Series [3] relates to SK-Hep1 cells. In words: Anti-tumor activity assay (IC50 value), cells counted after three days. To be noted: Homo sapiens, SK-HEP1, 72 h, read-out: IC50 SK-Hep1.
Method: (§3) For half maximal inhibitory concentrations (IC50) analysis, the hepatic carcinoma cells (HepG2, SK-Hep1 and PLC-PRF5) were seeded in 24-well plates respectively, then treated with drugs at concentration gradient for three days. The cells were counted with hemocytometer. […] A is the cell quantity of the control group and B is the cell quantity of the drug treated group. The cell inhibition rate was transformed using its logarithm. And the drug IC50 value were calculated by Graphpad Prsim 9 software with curve fitting of the drug concentration and log (cell inhibition rate).
Series [4] relates to pLKO.1 HepG2 cells. Description: Dose-response growth inhibition, control knockdown cells. The class given is cell-based. To be noted: Homo sapiens. The method, then:
(§1) The cells were counted with hemocytometer.
Briefly, the pLKO.1 or shRNA plasmids with psPAX2 and PMD2.G were transfected into HEK-293T cells via DNA transfection reagent (SignaGen®Laboratories, SL100688). And the cell supernatant contained Lenti-virus was collected after 24 hours. The Lenti-virus of shRNAs were used to infect the hepatic carcinoma cells and the stable-transfection cell lines were screened by puromycin (1 μg/mL) (Solarbio, P8230).

The subject of series [5] is HepG2 cells. In words: Flow cytometry of propidium iodide and annexin V-FITC staining. As to conditions: HepG2, 4 μM. The class given is cell-based, human. From the text: Figure 2 Cytotoxic effect of Tc3 on human hepatic carcinoma cells in vitro. […] (B-C) Cell viability rates of HepG2 (B) and SK-Hep1 (C) cells treated with Tb7, Tc1, Tc3, Tc4 and other clinical chemotherapy drugs. (D-F) Flow cytometry of propidium iodide and annexin V-fluorescein isothiocyanate (FITC)-stained HepG2 cells (D). Statistical analysis of the early apoptotic cells (E) and late apoptotic cells (F). (G-I) Flow cytometry of propidium iodide and annexin V-fluorescein isothiocyanate (FITC)-stained AML-12 cells (G). Statistical analysis of the early apoptotic cells (H) and late apoptotic cells (I). Data are presented as mean ± SD of three independent biological experiments. *p < 0.05, **p < 0.01, ***p < 0.001 and ****p < 0.0001, ns, no significant.

The subject of series [6] is GSDME. Description: Western blot of GSDME activation. It is filed as cell-based, human. As to conditions: HepG2 and SK-Hep1 cells. The method, then: (§2) The whole-cell protein was extracted by RIPA lysis buffer contained with protease and phosphatase inhibitor cocktail (MCE, HY-K0010) from cells treated by indole analogues. Proteins were separated by sodium dodecyl sulfate-polyacrylamide gel electrophoresis (SDS-PAGE) gel, and then blotted onto polyvinylidene difluoride membrane (Millipore, IPVH00010). The membranes were incubated with the primary antibodies and the following horseradish peroxidase-conjugated (HRP) secondary antibodies. Next, membranes were washed and developed by ECL regent (Millipore, WBKLS0500).
In general terms: Immunoblotting shows a protein as a band on a membrane.

Series [7] in a line: Hydrolytic stability in phosphate buffer (HPLC). The class given is physicochemical. To be noted: phosphate buffer of PH 7.4 over 150 minutes. The method, then: The stability of Tc3 was evaluated by an UltiMate 3000 Dual-Gradient HPLC system (Sunnyvale, CA, USA). The samples of solution were chromatographed on ZORBAX Eclipse XDB-C18 column(5 µm, 4.6 × 150 mm, Agela Technologies), using an eluent composed of: water (95%) and acetonitrile (5%) at a flow rate of 1.0 mL/min. […] The hydrolysis of Tc3 was carried out in a phosphate buffer of PH 7.4 (50 ug/ml, initial concentration of 5 mM in methanol) over 150 minutes.

Series [8] deals with hepatocarcinoma PDXs. In words: Hepatocarcinoma PDXs treatment. As to conditions: 20 mg/kg and 40 mg/kg i.p. ten times, day 20. The class given is in vivo, Balb/c nude mice. The source says: Balb/c nude mice (female, 6-week-old) were subcutaneously injected with 2 × 10^6 HepG2 cells on the left and right flanks to construct cell-derived xenografts (CDXs). The patient-derived xenografts (PDXs) samples were gifts from Dr Changliang Shan of Nankai University. C57 BL/6N mice (female, 5-week-old) were subcutaneously injected with 2 × 10^6 Hepa1-6 cells mixed with matrigel (ABW, 0827265) on the left and right flanks. The mice were inoculated with hepatic carcinoma CDXs or PDXs for at least four days, and treated (i.p.) by vehicle and Tc3. […] Tumor volume = 4π/3 × (Length/2) × (Width/2)^2. All animal experiments were carried out in accordance with the recommendations of Requirements of the Ethical Review System of Biomedical Research Involving Human by National Health and Family Planning Commission of China and Nankai University Ethics Committee with written informed consent complying with the Declaration of Helsinki (IAEC ID: 2023-STDWLL-000249).

Series [9] relates to PERK. In words: Western blot of ER stress responders. It is filed as cell-based, human. To be noted: HepG2 and SK-Hep1 cells. The method, then: as §2
The subject of series [10] is CD8^+ T cells. In words: Fluorescence staining and flow cytometry of tumor-infiltrating cells. As to conditions: Hepa1-6 CDXs, 10 mg/kg. It is filed as in vivo, C57 BL/6N mice. The method, then: The lymphocytes were isolated from the tumors and blocked by purified CD16/32 antibody. Next, the cells were stained with fluorescent-conjugated antibodies (FITC-CD11b, APC-F4/80, PE-CD86, Alexa Flour® 700-CD206, APC-Ly6G, FITC-CD45, APC-CD8a, Pacific Blue^TM-IFN-γ). The fluorescence intensity was measured by a FACS Calibur, and data were analyzed with FlowJo software.
The mice tumor tissues were embedded into the OCT reagent and sliced into 10 μm sections via the freezing microtome. The sections were fixed by paraformaldehyde, blocked by 3% bovine serum albumin (BSA, Beyotime, ST2254), and incubated with the primary antibodies overnight. In the second day, the sections were incubated with the fluorescent‐conjugated antibodies and 4′,6‐diamidino‐2‐phenylindole (DAPI, Solarbio, C0065) for nuclei. The tissue fluorescent images were captured by a confocal microscope (Leica, TCS SP8) and analyzed by imageJ software.
(In general: A flow cytometer gives signals particle by particle.)

Series [11] relates to AML-12 cells. In words: Dose-response growth inhibition of liver parenchymal cells. It is filed as cell-based. To be noted: AML12; mouse liver parenchymal cells.
Source text: as §1
(E) Dose-response curves for Tc3 inhibiting the growth of AML-12 cells.

In series [12] the test system is HepG2 cells. Description: Anti-tumor activity assay (IC50 value), cells counted after three days.
Method: as §3
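For fold increase in cellular potency in this document: HepG2 cells exposed to a drug concentration series for 3 days, then counted with a hemocytometer, inhibition relative to untreated control cell number, IC50 obtained by curve fitting.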

One may read the half-life as the time needed for the level to fall by half in the phase considered. As a reminder, the microsomal CLint is the rate of metabolic loss divided by the concentration. A low value points to greater metabolic stability. A word on the IC50: it is the concentration needed to halve the response being measured. For `CC(C)[C@H](N)C(=O)NCCCn1cc(/C=C2\S/C(=N\c3ccc(N4CCOCC4)cc3)N(Cc3ccc(F)cc3)C2=O)c2ccccc21` [Tc3], the half-life at 1 μM in series [1] (human) was determined as 0.825 h; in series [1] (mouse), 1.93 h. The intrinsic clearance (microsomal CLint) at 1 μM in series [1] (human) came to 28 µL/min/mg; in series [1] (mouse) it was 12 µL/min/mg. In addition, the “intracellular ROS (DCFH-DA probes)” value in series [2] is given as “observably up-regulated”. Also, the IC50 was 1640 nM in series [3]; 2220 nM in series [4]; 6140 nM in series [11]; 1370 nM in [12] (Homo sapiens, HepG2, 72 h, read-out: IC50 HepG2). Moreover, the “cell death by annexin V / propidium iodide flow cytometry” value in [5] is given as “severe cell death”. In addition, the “GSDME activation / cleavage (western blotting)” value in [6] is on record as “promoted the cleavage of GSDME”. In addition, the stability to hydrolysis result in [7] is given as “no changes”. The “tumor size and weight of PDXs” value in series [8] was “significantly reduced the tumor size and weight”. In [9], the “PERK activation (western blotting)” value was “activated”. The “infiltration of activated CD8^+ T cells in tumors” value in series [10] is “significantly promoted”. The “fold increase in cellular potency” value in [12] (HepG2, compared to T1) is around 12 fold.
